PMC5218480 (PLoS ONE, 2017)

System: MV-4-11 cells
Test: Gene expression microarray analysis (Affymetrix PrimeView) and GSEA
Assay type: cell-based, human
Set-up: RFU PODN (11730768_x_at) / Fold change /veh PODN (11730768_x_at) / RFU LINC00158 (11744669_a_at) / Fold change /veh LINC00158 (11744669_a_at) / RFU DUSP10 (11751237_a_at) / Fold change /veh DUSP10 (11751237_a_at) / RFU ID3 (11757404_x_at) / Fold change /veh ID3 (11757404_x_at) / RFU PLEKHG5 (11737974_s_at) / Fold change /veh PLEKHG5 (11737974_s_at) / RFU LRRC4B (11730491_at) / Fold change /veh LRRC4B (11730491_at) / RFU GIMAP4 (11747438_a_at) / Fold change /veh GIMAP4 (11747438_a_at) / RFU KRT8 (11758183_x_at) / Fold change /veh KRT8 (11758183_x_at) / RFU CNN1 (11734310_a_at) / Fold change /veh CNN1 (11734310_a_at) / RFU VPS37D (11726825_at) / Fold change /veh VPS37D (11726825_at) / RFU C10orf10 (11716522_x_at) / Fold change /veh C10orf10 (11716522_x_at) / RFU KIR2DL2 /// KIR2DL4 /// KIR2DL5A /// KIR2DL5B /// KIR2DS1 /// KIR2DS2 /// KIR2DS3 /// KIR2DS4 /// KIR3DL3 /// KIR3DL3 /// KIR3DS1 (11738374_at) / Fold change /veh KIR2DL2 /// KIR2DL4 /// KIR2DL5A /// KIR2DL5B /// KIR2DS1 /// KIR2DS2 /// KIR2DS3 /// KIR2DS4 /// KIR3DL3 /// KIR3DL3 /// KIR3DS1 (11738374_at) / RFU C1QL1 (11718748_at) / Fold change /veh C1QL1 (11718748_at) / RFU TMPRSS4 (11747572_a_at) / Fold change /veh TMPRSS4 (11747572_a_at) / RFU HAMP (11756126_x_at) / Fold change /veh HAMP (11756126_x_at) / RFU RNFT2 (11725882_a_at) / Fold change /veh RNFT2 (11725882_a_at) / RFU NR4A2 (11747474_a_at) / Fold change /veh NR4A2 (11747474_a_at) / RFU ABCC12 (11746883_a_at) / Fold change /veh ABCC12 (11746883_a_at) / RFU TMEM136 (11760407_x_at) / Fold change /veh TMEM136 (11760407_x_at) / RFU CLDN22 /// WWC2 (11732394_at) / Fold change /veh CLDN22 /// WWC2 (11732394_at) / RFU HLA-DPB1 (11760878_x_at) / Fold change /veh HLA-DPB1 (11760878_x_at) / RFU SPINT1 (11716480_a_at) / Fold change /veh SPINT1 (11716480_a_at) / RFU GAP43 (11754022_s_at) / Fold change /veh GAP43 (11754022_s_at) / RFU A4GNT (11735810_at) / Fold change /veh A4GNT (11735810_at) / RFU PRB3 (11715151_x_at) / Fold change /veh PRB3 (11715151_x_at) / RFU TUBB4B (11761932_at) / Fold change /veh TUBB4B (11761932_at) / RFU CAPN14 (11732068_a_at) / Fold change /veh CAPN14 (11732068_a_at) / RFU TMCC2 (11721928_a_at) / Fold change /veh TMCC2 (11721928_a_at) / RFU IRGQ (11745062_a_at) / Fold change /veh IRGQ (11745062_a_at) / RFU FAM174B (11720279_a_at) / Fold change /veh FAM174B (11720279_a_at) / RFU TMPRSS4 (11748680_a_at) / Fold change /veh TMPRSS4 (11748680_a_at) / RFU FAM212B (11763350_a_at) / Fold change /veh FAM212B (11763350_a_at) / RFU PLEKHG5 (11743358_a_at) / Fold change /veh PLEKHG5 (11743358_a_at) / RFU ZSCAN30 (11745921_a_at) / Fold change /veh ZSCAN30 (11745921_a_at) / RFU CMKLR1 (11741424_a_at) / Fold change /veh CMKLR1 (11741424_a_at) / RFU LOC101060620 /// MAPK8IP1 (11723275_at) / Fold change /veh LOC101060620 /// MAPK8IP1 (11723275_at) / RFU SPTSSB (11747773_x_at) / Fold change /veh SPTSSB (11747773_x_at) / RFU PRSS12 (11739890_at) / Fold change /veh PRSS12 (11739890_at) / RFU BIN1 (11741810_x_at) / Fold change /veh BIN1 (11741810_x_at) / RFU WNT11 (11732464_a_at) / Fold change /veh WNT11 (11732464_a_at) / RFU C10orf10 (11716521_a_at) / Fold change /veh C10orf10 (11716521_a_at) / RFU C5orf56 (11738089_at) / Fold change /veh C5orf56 (11738089_at) / RFU CYB561 (11721691_x_at) / Fold change /veh CYB561 (11721691_x_at) / RFU ANKRD19P (11752326_a_at) / Fold change /veh ANKRD19P (11752326_a_at) / RFU OR2T12 /// OR2T33 /// OR2T8 (11738714_s_at) / Fold change /veh OR2T12 /// OR2T33 /// OR2T8 (11738714_s_at) / RFU VCAN (11748164_a_at) / Fold change /veh VCAN (11748164_a_at) / RFU JSRP1 (11732532_at) / Fold change /veh JSRP1 (11732532_at) / RFU KRTAP10-11 (11738290_x_at) / Fold change /veh KRTAP10-11 (11738290_x_at) / RFU MYO3A (11730013_a_at) / Fold change /veh MYO3A (11730013_a_at) / RFU EBF3 (11725865_a_at) / Fold change /veh EBF3 (11725865_a_at) / RFU CAMK2N1 (11719241_x_at) / Fold change /veh CAMK2N1 (11719241_x_at) / RFU C5orf56 (11738088_a_at) / Fold change /veh C5orf56 (11738088_a_at) / RFU OLFML3 (11715873_a_at) / Fold change /veh OLFML3 (11715873_a_at) / RFU LOC100653217 /// NTM (11731650_a_at) / Fold change /veh LOC100653217 /// NTM (11731650_a_at) / RFU MAPK11 (11762145_a_at) / Fold change /veh MAPK11 (11762145_a_at) / RFU FIZ1 (11724087_x_at) / Fold change /veh FIZ1 (11724087_x_at) / RFU OASL (11726364_x_at) / Fold change /veh OASL (11726364_x_at) / RFU SOX15 (11748057_x_at) / Fold change /veh SOX15 (11748057_x_at) / RFU CD79A (11719716_a_at) / Fold change /veh CD79A (11719716_a_at) / RFU HIST1H1D (11736915_at) / Fold change /veh HIST1H1D (11736915_at) / RFU CASKIN2 (11723855_a_at) / Fold change /veh CASKIN2 (11723855_a_at) / RFU LOC730098 (11760151_x_at) / Fold change /veh LOC730098 (11760151_x_at) / RFU OR4N2 (11742367_at) / Fold change /veh OR4N2 (11742367_at) / RFU PRRT2 (11749266_a_at) / Fold change /veh PRRT2 (11749266_a_at) / RFU SNX32 (11753110_a_at) / Fold change /veh SNX32 (11753110_a_at) / RFU CDHR5 (11726645_a_at) / Fold change /veh CDHR5 (11726645_a_at) / RFU RCAN1 (11760418_a_at) / Fold change /veh RCAN1 (11760418_a_at) / RFU FAM167A (11723789_a_at) / Fold change /veh FAM167A (11723789_a_at) / RFU FAM26E (11764081_at) / Fold change /veh FAM26E (11764081_at) / RFU ISYNA1 (11749810_s_at) / Fold change /veh ISYNA1 (11749810_s_at) / RFU ACY1 (11761880_at) / Fold change /veh ACY1 (11761880_at) / RFU 11764098_at / Fold change /veh 11764098_at / RFU SAMD14 (11745864_x_at) / Fold change /veh SAMD14 (11745864_x_at) / RFU NPB (11741838_a_at) / Fold change /veh NPB (11741838_a_at) / RFU TMPRSS6 (11731388_a_at) / Fold change /veh TMPRSS6 (11731388_a_at) / RFU KRTAP10-2 (11738614_at) / Fold change /veh KRTAP10-2 (11738614_at) / RFU ARHGAP8 /// PRR5-ARHGAP8 (11727945_x_at) / Fold change /veh ARHGAP8 /// PRR5-ARHGAP8 (11727945_x_at) / RFU KRTAP5-7 /// NADSYN1 (11734609_at) / Fold change /veh KRTAP5-7 /// NADSYN1 (11734609_at) / RFU RASL12 (11751679_a_at) / Fold change /veh RASL12 (11751679_a_at) / RFU CDKN2B (11736163_a_at) / Fold change /veh CDKN2B (11736163_a_at) / RFU PRF1 (11729649_at) / Fold change /veh PRF1 (11729649_at) / RFU, ZNF638 /// ZNF638-IT1 / Fold change vs veh, ZNF638 /// ZNF638-IT1 / RFU, PANK3 / Fold change vs veh, PANK3 / RFU, SH3YL1 / Fold change vs veh, SH3YL1 / RFU, ZEB2 / Fold change vs veh, ZEB2 / RFU, NRIP1 / Fold change vs veh, NRIP1 / RFU, PTTG1IP / Fold change vs veh, PTTG1IP / RFU, CAPN2 / Fold change vs veh, CAPN2 / RFU, MED14 / Fold change vs veh, MED14 / RFU, SNORA58 / Fold change vs veh, SNORA58 / RFU, C1orf63 / Fold change vs veh, C1orf63 / RFU, LRRFIP1 / Fold change vs veh, LRRFIP1 / RFU, NDUFAF7 / Fold change vs veh, NDUFAF7 / RFU, SLC12A2 / Fold change vs veh, SLC12A2 / RFU, IBTK / Fold change vs veh, IBTK / RFU, ESF1 / Fold change vs veh, ESF1 / Fold change vs veh, TMEM50B / RFU, TAOK1 / Fold change vs veh, TAOK1 / RFU, ACBD3 / Fold change vs veh, ACBD3 / RFU, TMA16 / Fold change vs veh, TMA16 / RFU, RWDD3 / Fold change vs veh, RWDD3 / RFU, BCAT1 / Fold change vs veh, BCAT1 / RFU, EDEM3 / Fold change vs veh, EDEM3 / RFU, TMEM33 / Fold change vs veh, TMEM33 / RFU, WDR75 / Fold change vs veh, WDR75 / RFU, AHCTF1 / Fold change vs veh, AHCTF1 / RFU, TFRC / Fold change vs veh, TFRC / RFU, ZDHHC17 / Fold change vs veh, ZDHHC17 / RFU, NOM1 / Fold change vs veh, NOM1 / RFU, ARL8B / Fold change vs veh, ARL8B / RFU, ZBTB11 / Fold change vs veh, ZBTB11 / RFU, TAMM41 / Fold change vs veh, TAMM41 / RFU, KIAA1704 /// LOC100996395 / Fold change vs veh, KIAA1704 /// LOC100996395 / RFU, ING1 / Fold change vs veh, ING1 / RFU, TRMT61B / Fold change vs veh, TRMT61B / RFU, FUBP3 / Fold change vs veh, FUBP3 / RFU, TP53 / Fold change vs veh, TP53 / RFU, TNKS2 / Fold change vs veh, TNKS2 / RFU, ZFP14 / Fold change vs veh, ZFP14 / RFU, ACTR2 / Fold change vs veh, ACTR2 / RFU, PPP3R1 / Fold change vs veh, PPP3R1 / RFU, PIK3R1 / Fold change vs veh, PIK3R1 / RFU, HNRNPA1 / Fold change vs veh, HNRNPA1 / RFU, RNF170 / Fold change vs veh, RNF170 / RFU, ZNF28 / Fold change vs veh, ZNF28 / RFU, RNGTT / Fold change vs veh, RNGTT / RFU, OGT / Fold change vs veh, OGT / RFU, BRD1 / Fold change vs veh, BRD1 / RFU, MARS / Fold change vs veh, MARS / RFU, ZNF655 / Fold change vs veh, ZNF655 / RFU, FAHD1 / Fold change vs veh, FAHD1 / RFU, BDP1 / Fold change vs veh, BDP1 / RFU, LRRCC1 / Fold change vs veh, LRRCC1 / RFU, ARID1A / Fold change vs veh, ARID1A / RFU, ZNF146 / Fold change vs veh, ZNF146 / RFU, ZNF330 / Fold change vs veh, ZNF330 / RFU, GPN3 / Fold change vs veh, GPN3 / RFU, C9orf123 / Fold change vs veh, C9orf123 / RFU, N4BP2L2 / Fold change vs veh, N4BP2L2 / RFU, ARFIP1 / Fold change vs veh, ARFIP1 / RFU, FAM179B / Fold change vs veh, FAM179B / RFU, BCL10 / Fold change vs veh, BCL10 / RFU, UHRF1BP1L / Fold change vs veh, UHRF1BP1L / RFU, BET1 / Fold change vs veh, BET1 / RFU, CNOT2 / Fold change vs veh, CNOT2 / RFU, ZNF268 / Fold change vs veh, ZNF268 / Fold change vs veh, ZNF507 / RFU, DGCR2 / Fold change vs veh, DGCR2 / RFU, WDSUB1 / Fold change vs veh, WDSUB1 / Fold change vs veh, HSP90B1 /// MIR3652 / RFU, ADSS / Fold change vs veh, ADSS / RFU, GK / Fold change vs veh, GK / RFU, ZNF148 / Fold change vs veh, ZNF148 / RFU, TAF9 / Fold change vs veh, TAF9 / RFU, SLC1A5 / Fold change vs veh, SLC1A5 / RFU, SLMO2 / Fold change vs veh, SLMO2 / RFU, ABCC4 / Fold change vs veh, ABCC4 / RFU, LOC101060439 /// RAP1B / Fold change vs veh, LOC101060439 /// RAP1B / RFU, RFX7 / Fold change vs veh, RFX7 / RFU, GTPBP10 / Fold change vs veh, GTPBP10 / RFU, CNEP1R1 / Fold change vs veh, CNEP1R1 / RFU, BIVM-ERCC5 /// ERCC5 / Fold change vs veh, BIVM-ERCC5 /// ERCC5 / RFU, ILF3 / Fold change vs veh, ILF3 / RFU 11762660_at / Fold change /veh 11762660_at / RFU VCAN (11757783_s_at) / Fold change /veh VCAN (11757783_s_at) / RFU DDX43 (11728927_at) / Fold change /veh DDX43 (11728927_at) / RFU KRT8 (11758188_x_at) / Fold change /veh KRT8 (11758188_x_at) / RFU NKD1 (11759106_at) / Fold change /veh NKD1 (11759106_at) / RFU SRD5A1 (11742802_a_at) / Fold change /veh SRD5A1 (11742802_a_at) / RFU TPSAB1 /// TPSB2 (11721975_s_at) / Fold change /veh TPSAB1 /// TPSB2 (11721975_s_at) / RFU GSTM3 (11746129_a_at) / Fold change /veh GSTM3 (11746129_a_at) / RFU IL23R (11737362_x_at) / Fold change /veh IL23R (11737362_x_at) / RFU TMEM51 (11727254_a_at) / Fold change /veh TMEM51 (11727254_a_at) / RFU PIWIL2 (11732686_x_at) / Fold change /veh PIWIL2 (11732686_x_at) / RFU ORM1 (11744905_x_at) / Fold change /veh ORM1 (11744905_x_at) / RFU CCDC152 (11743942_at) / Fold change /veh CCDC152 (11743942_at) / RFU ECM1 (11717891_a_at) / Fold change /veh ECM1 (11717891_a_at) / RFU IL23R (11748794_a_at) / Fold change /veh IL23R (11748794_a_at) / RFU TNFAIP8L3 (11732012_x_at) / Fold change /veh TNFAIP8L3 (11732012_x_at) / RFU MBOAT4 (11741988_at) / Fold change /veh MBOAT4 (11741988_at) / RFU 11764193_at / Fold change /veh 11764193_at / RFU TMEM53 (11763286_at) / Fold change /veh TMEM53 (11763286_at) / RFU MAGEB2 (11727129_at) / Fold change /veh MAGEB2 (11727129_at) / RFU TMEM200A (11744735_a_at) / Fold change /veh TMEM200A (11744735_a_at) / RFU CCDC152 (11751479_a_at) / Fold change /veh CCDC152 (11751479_a_at) / RFU FAM211A (11726209_a_at) / Fold change /veh FAM211A (11726209_a_at) / RFU RGS16 (11746705_a_at) / Fold change /veh RGS16 (11746705_a_at) / RFU VCAN (11755009_s_at) / Fold change /veh VCAN (11755009_s_at) / RFU RHOB (11743442_s_at) / Fold change /veh RHOB (11743442_s_at) / RFU RGS16 (11720943_a_at) / Fold change /veh RGS16 (11720943_a_at) / RFU RGS16 (11720944_at) / Fold change /veh RGS16 (11720944_at) / RFU, VPS4B / Fold change vs veh, VPS4B / RFU, CREB1 / Fold change vs veh, CREB1 / RFU, DNAJC13 / Fold change vs veh, DNAJC13 / RFU, GNAQ / Fold change vs veh, GNAQ / RFU, CDK5R1 / Fold change vs veh, CDK5R1 / RFU, ZRANB3 / Fold change vs veh, ZRANB3 / RFU, CUL4A / Fold change vs veh, CUL4A / RFU, CCNY / Fold change vs veh, CCNY / RFU, UFL1 / Fold change vs veh, UFL1 / RFU, COG3 / Fold change vs veh, COG3 / RFU, DIAPH2 / Fold change vs veh, DIAPH2 / RFU, SKA2 / Fold change vs veh, SKA2 / RFU, AFF3 / Fold change vs veh, AFF3 / RFU, LMF1 / Fold change vs veh, LMF1 / RFU, IPO11 / Fold change vs veh, IPO11 / RFU, DFFB / Fold change vs veh, DFFB / RFU, FOXP1 / Fold change vs veh, FOXP1 / RFU, CARD8 / Fold change vs veh, CARD8 / RFU, STRN3 / Fold change vs veh, STRN3 / RFU, ADK / Fold change vs veh, ADK / RFU, RASSF2 / Fold change vs veh, RASSF2 / RFU, WIPF1 / Fold change vs veh, WIPF1 / RFU, LARP1B / Fold change vs veh, LARP1B / RFU, RASA1 / Fold change vs veh, RASA1 / RFU, RB1 / Fold change vs veh, RB1 / RFU, PPFIA1 / Fold change vs veh, PPFIA1 / RFU, MAT2A / Fold change vs veh, MAT2A / RFU, CCT5 / Fold change vs veh, CCT5 / RFU, WDR92 / Fold change vs veh, WDR92 / RFU, CUX1 / Fold change vs veh, CUX1 / RFU, TTC7A / Fold change vs veh, TTC7A / RFU, TMEM135 / Fold change vs veh, TMEM135 / RFU, DEPTOR / Fold change vs veh, DEPTOR / RFU, CPM / Fold change vs veh, CPM / RFU, DNAJB6 / Fold change vs veh, DNAJB6 / RFU, CACNA2D3 / Fold change vs veh, CACNA2D3 / RFU, DTX4 / Fold change vs veh, DTX4 / RFU, TFCP2 / Fold change vs veh, TFCP2 / RFU, GMCL1 /// GMCL1P1 / Fold change vs veh, GMCL1 /// GMCL1P1 / RFU, AEBP2 / Fold change vs veh, AEBP2 / RFU, SNHG1 /// SNORD22 /// SNORD25 /// SNORD26 /// SNORD27 /// SNORD28 /// SNORD29 /// SNORD31 / Fold change vs veh, SNHG1 /// SNORD22 /// SNORD25 /// SNORD26 /// SNORD27 /// SNORD28 /// SNORD29 /// SNORD31 / Fold change (Aza/veh), C12orf56 (ProbeSet 11735607_a_at) / Fold change (ACY-1035/veh), C12orf56 (ProbeSet 11735607_a_at) / Fold change (Aza/veh), FGFR1OP (ProbeSet 11751329_s_at) / Fold change (ACY-1035/veh), FGFR1OP (ProbeSet 11751329_s_at) / Fold change (Aza/veh), VPS36 (ProbeSet 11739960_a_at) / Fold change (ACY-1035/veh), VPS36 (ProbeSet 11739960_a_at) / RFU SYPL1 (11715823_x_at) / Fold change /veh SYPL1 (11715823_x_at) / RFU IGFBP7 (11715501_s_at) / Fold change /veh IGFBP7 (11715501_s_at) / RFU REEP3 (11722064_at) / Fold change /veh REEP3 (11722064_at) / RFU IGLL1 (11728026_x_at) / Fold change /veh IGLL1 (11728026_x_at): dose or concentration left out as unconfirmed
Settings: ProbeSet 11725901_x_at; LIST B

Nc1ncn([C@@H]2O[C@H](CO)[C@@H](O)[C@H]2O)c(=O)n1 [azacitidine]
RFU, RWDD3: 20.92 RFU
